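Each compound was tested at five concentrations against cells in 96-well plates for 48 hours. GI50 = concentration required for 50% inhibition of growth. The concentration for full growth arrest is given as TGI.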
Assays:
Test in all cases: DTP human tumour cell line panel, 48 h
IGROV1 ovarian = system: IGROV1 ovarian
OVCAR-3 ovarian = system: OVCAR-3 ovarian
SW-620 colon = system: SW-620 colon
MALME-3M melanoma = system: MALME-3M melanoma
MOLT-4 leukemia = system: MOLT-4 leukemia
EKVX NSCLC = system: EKVX NSCLC
MDA-MB-435 = system: MDA-MB-435
SF-539 CNS = system: SF-539 CNS
HT29 colon = system: HT29 colon
COLO 205 colon = system: COLO 205 colon
OVCAR-4 ovarian = system: OVCAR-4 ovarian
SNB-19 CNS = system: SNB-19 CNS
HS 578T breast = system: HS 578T breast
TK-10 renal = system: TK-10 renal
RPMI-8226 leukemia = system: RPMI-8226 leukemia
SR leukemia = system: SR leukemia
PC-3 prostate = system: PC-3 prostate
MDA-MB-231 breast = system: MDA-MB-231 breast
SF-295 CNS = system: SF-295 CNS
UO-31 renal = system: UO-31 renal
U251 CNS = system: U251 CNS
ACHN renal = system: ACHN renal
UACC-257 melanoma = system: UACC-257 melanoma
LOX IMVI melanoma = system: LOX IMVI melanoma
SNB-75 CNS = system: SNB-75 CNS
BT-549 breast = system: BT-549 breast
HOP-62 NSCLC = system: HOP-62 NSCLC
UACC-62 melanoma = system: UACC-62 melanoma
NCI-H226 lung = system: NCI-H226 lung
NCI/ADR-RES ovarian = system: NCI/ADR-RES ovarian
NCI-H23 lung = system: NCI-H23 lung
HCT-15 colon = system: HCT-15 colon
786-0 renal = system: 786-0 renal
OVCAR-5 ovarian = system: OVCAR-5 ovarian
HCT-116 colon = system: HCT-116 colon
HCC-2998 colon = system: HCC-2998 colon
SK-MEL-2 melanoma = system: SK-MEL-2 melanoma
HL-60(TB) leukemia = system: HL-60(TB) leukemia
MCF7 breast = system: MCF7 breast
DU-145 prostate = system: DU-145 prostate
M14 melanoma = system: M14 melanoma
NCI-H460 lung = system: NCI-H460 lung
K-562 leukemia = system: K-562 leukemia
HOP-92 NSCLC = system: HOP-92 NSCLC
CCRF-CEM leukemia = system: CCRF-CEM leukemia
OVCAR-8 ovarian = system: OVCAR-8 ovarian
NCI-H522 lung = system: NCI-H522 lung
SF-268 CNS = system: SF-268 CNS
KM12 colon = system: KM12 colon
SK-MEL-28 melanoma = system: SK-MEL-28 melanoma
A549 NSCLC = system: A549 NSCLC
SK-MEL-5 melanoma = system: SK-MEL-5 melanoma
A498 renal = system: A498 renal
RXF 393 renal = system: RXF 393 renal
T-47D breast = system: T-47D breast
SK-OV-3 ovarian = system: SK-OV-3 ovarian
SN12C renal = system: SN12C renal
CAKI-1 renal = system: CAKI-1 renal

`CCCCC[C@H]1C/C=C2/C(=O)C(Cl)=C[C@@H]2C/C=C\CCCC(=O)O1` was tested, and the GI50 (IGROV1 ovarian) was 444 nM, the TGI (IGROV1 ovarian) was 1240 nM and the GI50 (OVCAR-3 ovarian) was 366 nM. It also gave a TGI (OVCAR-3 ovarian) of 1260 nM, a GI50 (SW-620 colon) of 181 nM and a TGI (SW-620 colon) of 1300 nM. It also gave a GI50 (MALME-3M melanoma) of 573 nM, a TGI (MALME-3M melanoma) of 1530 nM and a GI50 (MOLT-4 leukemia) of 117 nM. It also gave a TGI (MOLT-4 leukemia) of 2980 nM, a GI50 (EKVX NSCLC) of 560 nM and a TGI (EKVX NSCLC) of 1370 nM. For the same molecule, the GI50 (MDA-MB-435) was 337 nM, the TGI (MDA-MB-435) was 1110 nM and the GI50 (SF-539 CNS) was 607 nM. For the same molecule, the TGI (SF-539 CNS) was 1610 nM, the GI50 (HT29 colon) was 461 nM and the TGI (HT29 colon) was 2260 nM. It also gave a GI50 (COLO 205 colon) of 438 nM, a TGI (COLO 205 colon) of 975 nM and a GI50 (OVCAR-4 ovarian) of 735 nM. The TGI (OVCAR-4 ovarian) was 3830 nM, the GI50 (SNB-19 CNS) was 590 nM and the TGI (SNB-19 CNS) was 2680 nM. The GI50 (HS 578T breast) was 1100 nM, the TGI (HS 578T breast) was 25000 nM and the GI50 (TK-10 renal) was 612 nM. The TGI (TK-10 renal) was 1170 nM, the GI50 (RPMI-8226 leukemia) was 171 nM and the TGI (RPMI-8226 leukemia) was 1520 nM. The GI50 (SR leukemia) was 122 nM, the TGI (SR leukemia) was 2680 nM and the GI50 (PC-3 prostate) was 473 nM. It also gave a TGI (PC-3 prostate) of 1270 nM, a GI50 (MDA-MB-231 breast) of 642 nM and a TGI (MDA-MB-231 breast) of 2240 nM. It also gave a GI50 (SF-295 CNS) of 563 nM, a TGI (SF-295 CNS) of 1530 nM and a GI50 (UO-31 renal) of 379 nM. It also gave a TGI (UO-31 renal) of 717 nM, a GI50 (U251 CNS) of 330 nM and a TGI (U251 CNS) of 737 nM. For the same molecule, the GI50 (ACHN renal) was 361 nM, the TGI (ACHN renal) was 704 nM and the GI50 (UACC-257 melanoma) was 513 nM. For the same molecule, the TGI (UACC-257 melanoma) was 1410 nM, the GI50 (LOX IMVI melanoma) was 126 nM and the TGI (LOX IMVI melanoma) was 449 nM. For the same molecule, the GI50 (SNB-75 CNS) was 1760 nM, the TGI (SNB-75 CNS) was 6090 nM and the GI50 (BT-549 breast) was 421 nM. For the same molecule, the TGI (BT-549 breast) was 825 nM, the GI50 (HOP-62 NSCLC) was 530 nM and the TGI (HOP-62 NSCLC) was 1150 nM. It also gave a GI50 (UACC-62 melanoma) of 411 nM, a TGI (UACC-62 melanoma) of 1000 nM and a GI50 (NCI-H226 lung) of 544 nM. It also gave a TGI (NCI-H226 lung) of 1500 nM, a GI50 (NCI/ADR-RES ovarian) of 317 nM and a TGI (NCI/ADR-RES ovarian) of 1640 nM. It also gave a GI50 (NCI-H23 lung) of 493 nM, a TGI (NCI-H23 lung) of 1180 nM and a GI50 (HCT-15 colon) of 284 nM. For the same molecule, the TGI (HCT-15 colon) was 895 nM, the GI50 (786-0 renal) was 470 nM and the TGI (786-0 renal) was 888 nM. For the same molecule, the GI50 (OVCAR-5 ovarian) was 649 nM, the TGI (OVCAR-5 ovarian) was 1400 nM and the GI50 (HCT-116 colon) was 201 nM. For the same molecule, the TGI (HCT-116 colon) was 570 nM, the GI50 (HCC-2998 colon) was 475 nM and the TGI (HCC-2998 colon) was 855 nM. The GI50 (SK-MEL-2 melanoma) was 439 nM, the TGI (SK-MEL-2 melanoma) was 1130 nM and the GI50 (HL-60(TB) leukemia) was 565 nM. For the same molecule, the TGI (HL-60(TB) leukemia) was 2720 nM, the GI50 (MCF7 breast) was 88.6 nM and the TGI (MCF7 breast) was 2700 nM. The GI50 (DU-145 prostate) was 638 nM, the TGI (DU-145 prostate) was 2510 nM and the GI50 (M14 melanoma) was 422 nM. The TGI (M14 melanoma) was 999 nM, the GI50 (NCI-H460 lung) was 629 nM and the TGI (NCI-H460 lung) was 1910 nM. The GI50 (K-562 leukemia) was 116 nM, the TGI (K-562 leukemia) was 3600 nM and the GI50 (HOP-92 NSCLC) was 587 nM. The TGI (HOP-92 NSCLC) was 1380 nM, the GI50 (CCRF-CEM leukemia) was 113 nM and the TGI (CCRF-CEM leukemia) was 2930 nM. It also gave a GI50 (OVCAR-8 ovarian) of 328 nM, a TGI (OVCAR-8 ovarian) of 1650 nM and a GI50 (NCI-H522 lung) of 335 nM. It also gave a TGI (NCI-H522 lung) of 755 nM, a GI50 (SF-268 CNS) of 803 nM and a TGI (SF-268 CNS) of 3720 nM. For the same molecule, the GI50 (KM12 colon) was 518 nM, the TGI (KM12 colon) was 1330 nM and the GI50 (SK-MEL-28 melanoma) was 472 nM. For the same molecule, the TGI (SK-MEL-28 melanoma) was 1120 nM, the GI50 (A549 NSCLC) was 625 nM and the TGI (A549 NSCLC) was 1870 nM. It also gave a GI50 (SK-MEL-5 melanoma) of 437 nM, a TGI (SK-MEL-5 melanoma) of 812 nM and a GI50 (A498 renal) of 546 nM. The TGI (A498 renal) was 1460 nM, the GI50 (RXF 393 renal) was 457 nM and the TGI (RXF 393 renal) was 868 nM. The GI50 (T-47D breast) was 554 nM, the TGI (T-47D breast) was 2080 nM and the GI50 (SK-OV-3 ovarian) was 907 nM. It also gave a TGI (SK-OV-3 ovarian) of 2680 nM, a GI50 (SN12C renal) of 333 nM and a TGI (SN12C renal) of 905 nM.
For `Cc1ccc2c(c1)C(O)(c1ccccc1)CCS2` (stereo not drawn), the TGI (IGROV1 ovarian) was 65700 nM, the TGI (OVCAR-3 ovarian) was 46900 nM and the TGI (SW-620 colon) was > 100000 nM. The TGI (MALME-3M melanoma) was 93500 nM, the TGI (MOLT-4 leukemia) was 44700 nM and the TGI (EKVX NSCLC) was > 100000 nM. For the same molecule, the TGI (MDA-MB-435) was 73200 nM, the TGI (SF-539 CNS) was 55000 nM and the TGI (HT29 colon) was 66000 nM. The TGI (COLO 205 colon) was > 100000 nM, the TGI (OVCAR-4 ovarian) was > 100000 nM and the TGI (SNB-19 CNS) was > 100000 nM. The TGI (HS 578T breast) was > 100000 nM, the TGI (TK-10 renal) was 78600 nM and the TGI (CAKI-1 renal) was 53600 nM. The TGI (SR leukemia) was 40300 nM, the TGI (PC-3 prostate) was > 100000 nM and the TGI (MDA-MB-231 breast) was 39800 nM. For the same molecule, the TGI (SF-295 CNS) was 80300 nM, the TGI (UO-31 renal) was 48700 nM and the TGI (U251 CNS) was 45800 nM. The TGI (ACHN renal) was 62600 nM, the TGI (UACC-257 melanoma) was > 100000 nM and the TGI (LOX IMVI melanoma) was 36000 nM. The TGI (SNB-75 CNS) was > 100000 nM, the TGI (BT-549 breast) was 93600 nM and the TGI (HOP-62 NSCLC) was > 100000 nM. For the same molecule, the TGI (UACC-62 melanoma) was 52700 nM, the TGI (NCI-H226 lung) was 82400 nM and the TGI (NCI/ADR-RES ovarian) was > 100000 nM. For the same molecule, the TGI (NCI-H23 lung) was 89900 nM, the TGI (HCT-15 colon) was 42400 nM and the TGI (786-0 renal) was > 100000 nM. It also gave a TGI (OVCAR-5 ovarian) of 80600 nM, a TGI (HCT-116 colon) of 42500 nM and a TGI (SK-MEL-2 melanoma) of 80400 nM. The TGI (HL-60(TB) leukemia) was 89600 nM, the TGI (MCF7 breast) was > 100000 nM and the TGI (DU-145 prostate) was > 100000 nM. For the same molecule, the TGI (M14 melanoma) was 66900 nM, the TGI (NCI-H460 lung) was > 100000 nM and the TGI (K-562 leukemia) was > 100000 nM. For the same molecule, the TGI (HOP-92 NSCLC) was 77900 nM, the TGI (OVCAR-8 ovarian) was > 100000 nM and the TGI (NCI-H522 lung) was 44600 nM. For the same molecule, the TGI (SF-268 CNS) was > 100000 nM, the TGI (KM12 colon) was 54900 nM and the TGI (SK-MEL-28 melanoma) was > 100000 nM. The TGI (A549 NSCLC) was > 100000 nM, the TGI (SK-MEL-5 melanoma) was > 100000 nM and the TGI (RXF 393 renal) was > 100000 nM. For the same molecule, the TGI (T-47D breast) was > 100000 nM, the TGI (SK-OV-3 ovarian) was > 100000 nM and the TGI (SN12C renal) was > 100000 nM.

Reference: PubChem BioAssay (NCI)
